Experimental findings from patent US20100105730A1 (H. Lundbeck A/S, priority 2007, published 2010) are described below.

For orientation: Ki means a measure of affinity in units of concentration, obtained from inhibition or displacement.

Where two headings read alike, the source gives them in different places.

In test [1] the target is T1, 5-HT2A receptors (Homo sapiens, UniProt P28223). In words: Antagonism of 5-HT evoked Ca2+ release in CHO cells expressing human 5-HT2A receptors (FLIPR). Format: cell-based. Set-up: expressed in transfected cells; host or cells: CHO cells. How it is done:
The experiment was carried out as follows. 2 or 3 days before the experiment CHO cells expressing 250 fmol/mg human 5-HT2A receptors are plated at a density sufficient to yield a mono-confluent layer on the day of the experiment. The cells are dye loaded (Ca^2+-kit from Molecular Devices) for 60 minutes at 37° C. in a 5% CO2 incubator at 95% humidity. Basal fluorescence was monitored in a fluorometric imaging plate reader or FLIPR^384 from Molecular Devices (Sunnyvale, Calif.) with an excitation wavelength of 488 nm and an emission range of 500 to 560 nm. […] The variation in basal fluorescence should be less than 10%. […] IC; values were calculated using Cheng-Prusoff equation.

Test [2] concerns formalin model of neuropathic pain. Put plainly: Formalin model of neuropathic pain in mice. Format: in vivo, C57/B6 mice. How it is done: The irritation caused by the formalin injection elicits a characteristic biphasic behavioural response, as quantified by the amount of time spent licking the injured paw. The first phase (—O—10 minutes) represents direct chemical irritation and nociception, whereas the second (−20-30 minutes) is thought to represent pain of neuropathic origin. The two phases are separated by a quiescent period in which behaviour returns to normal. Measuring the amount of time spent licking the injured paw in the two phases assesses the effectiveness of test compounds to reduce the painful stimuli. Eight C57/B6 mice (ca. 25 g) were tested per group. […] The amount of compound administered is calculated as the free base.

The target in test [3] is T2, NET (Rattus norvegicus, UniProt Q63380).
T2 construct: rat cortical synaptosome preparation; from tissue; host or cells: rat cortical synaptosomes
T2 sequence (Q63380 1-617): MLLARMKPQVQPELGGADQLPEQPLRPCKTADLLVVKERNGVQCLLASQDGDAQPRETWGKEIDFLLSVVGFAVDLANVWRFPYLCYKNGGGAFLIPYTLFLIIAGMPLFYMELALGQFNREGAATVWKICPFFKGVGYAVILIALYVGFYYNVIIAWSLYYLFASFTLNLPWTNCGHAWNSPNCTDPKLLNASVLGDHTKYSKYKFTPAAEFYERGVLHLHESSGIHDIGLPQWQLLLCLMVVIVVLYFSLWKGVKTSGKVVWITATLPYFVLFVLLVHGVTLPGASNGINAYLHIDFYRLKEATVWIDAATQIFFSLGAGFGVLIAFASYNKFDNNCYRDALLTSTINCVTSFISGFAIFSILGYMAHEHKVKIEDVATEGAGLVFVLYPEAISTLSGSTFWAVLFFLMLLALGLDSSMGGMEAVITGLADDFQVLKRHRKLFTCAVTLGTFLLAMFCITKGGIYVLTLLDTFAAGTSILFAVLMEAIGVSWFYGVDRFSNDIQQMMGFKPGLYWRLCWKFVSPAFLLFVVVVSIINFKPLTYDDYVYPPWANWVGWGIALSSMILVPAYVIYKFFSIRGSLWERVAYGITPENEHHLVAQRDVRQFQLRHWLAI
In words: Norepinephrine (NE) reuptake inhibition, rat cortical synaptosomes. Format: biochemical. The following applies: rat cortical synaptosome preparation; read-out: IC50 at NET ([3H]NE uptake). How it is done:
(§1) Non-specific uptake was determined in the presence of 10 μM talsupram or citalopram and the total uptake was determined in the presence of buffer. Aliquots were incubated for 15 minutes at 37° C. […] Filters were washed and counted in a Wallac MicroBeta counter.

For test [4], the system named is extracellular dopamine (DA) levels in the rat frontal cortex. In words: Microdialysis, extracellular dopamine levels in rat frontal cortex. It is filed as in vivo. The conditions noted are these: single injection. As for the experimental part: Male Sprague-Dawley rats, initially weighing 275-300 g, were used. The animals were housed under a 12-hr light/dark cycle under controlled conditions for regular in-door temperature (21±2° C.) and humidity (55±5%) with food and tap water available ad libitum. For the three-day treatment experiments osmotic minipumps (Alzet, 2ML1) were used. The pumps were filled under aseptic conditions and implanted subcutaneously under sevoflurance anaesthesia. The experiments were carried out with the minipumps on board. Blood samples for measuring plasma levels of the test compound after 3 days of treatment were collected at the end of the experiments. Animals were anaesthetised with hypnorm/dormicum (2 ml/kg) and intracerebral guide cannulas (CMA/12) were stereotaxically implanted into the hippocampus, positioning the dialysis probe tip in the ventral hippocampus (co-ordinates: 5.6 mm […] to bregma, lateral—5.0 mm, 7.0 mm ventral to dura or in the frontal cortex (co-ordinates: 3.2 mm anterior to bregma; lateral, 3.0 mm; 4.0 mm ventral to dura). Anchor screws and acrylic cement were sued for fixation of the guide cannulas. The body temperature of the animals was monitored by rectal probe and maintained at 37° C. The rats were allowed to recover from surgery for 2 days, housed singly in cages. […]

For test [5], the target named is T1, 5-HT2A receptors. In words: 5-HT2A receptor affinity (MDL Pharmaservices catalogue number 271650). It is filed as binding. Set-up: purchased MDL Pharmaservices 271650.
Test [6] has as its target T3, α1A receptor (Homo sapiens, UniProt P35348).
T3 sequence (P35348 1-466): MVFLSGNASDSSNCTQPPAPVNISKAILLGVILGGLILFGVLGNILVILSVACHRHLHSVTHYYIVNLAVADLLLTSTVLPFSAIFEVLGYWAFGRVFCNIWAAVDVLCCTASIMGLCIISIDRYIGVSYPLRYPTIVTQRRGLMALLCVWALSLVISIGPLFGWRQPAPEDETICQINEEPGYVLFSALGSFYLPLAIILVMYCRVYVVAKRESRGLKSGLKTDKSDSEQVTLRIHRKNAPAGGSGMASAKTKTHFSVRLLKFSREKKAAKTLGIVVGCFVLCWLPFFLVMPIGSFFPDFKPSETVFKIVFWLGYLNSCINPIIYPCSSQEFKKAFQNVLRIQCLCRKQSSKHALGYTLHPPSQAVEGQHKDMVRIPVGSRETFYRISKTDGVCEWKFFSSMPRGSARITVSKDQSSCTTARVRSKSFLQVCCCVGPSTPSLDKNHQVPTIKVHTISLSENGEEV
In words: α1A receptor affinity, [3H]-Prazosin binding to membranes. The conditions noted are these: Ki by Cheng Prusoff, read-out: Ki, affinity for α1A receptors. How it is done:
On the day of the experiments membranes (see below for description of membrane preparation) are thawed and homogenized in buffer using an ultra turrax and diluted to the desired concentration (5 μg/well˜5/900 μl, store on ice until use). The experiment is initiated by mixing of 50 μl test compound, 50 μl [^3H]-Prazosin and […], and the mixture is incubated for 20 minutes at 25° C. Non-specific binding is determined in the presence of 10 μM WB-4101 and the total binding is determined in the presence of buffer. After the incubation, bound ligand is separated from unbound by filtration through Unifilter GF/B, presoaked in 0.1% PEI for 30 minutes, using a Tomtec Cell Harvester program (D4.2..4). 96 well. Filters are washed 3 times with 1 ml ice-cold buffer, dried at 50° C. and 35 μl scintillation liquid/well is added to the filters. Bound radioactivity is counted in a Wallac OY 1450 MicroBeta. […] Concentrations of compound covering 2 decades were used to calculate the IC50 value.

For test [7], the target named is T4, SERT (Rattus norvegicus, UniProt P31652).
T4 construct: rat cortical synaptosome preparation; from tissue; host or cells: rat cortical synaptosomes
T4 sequence (P31652 whole entry): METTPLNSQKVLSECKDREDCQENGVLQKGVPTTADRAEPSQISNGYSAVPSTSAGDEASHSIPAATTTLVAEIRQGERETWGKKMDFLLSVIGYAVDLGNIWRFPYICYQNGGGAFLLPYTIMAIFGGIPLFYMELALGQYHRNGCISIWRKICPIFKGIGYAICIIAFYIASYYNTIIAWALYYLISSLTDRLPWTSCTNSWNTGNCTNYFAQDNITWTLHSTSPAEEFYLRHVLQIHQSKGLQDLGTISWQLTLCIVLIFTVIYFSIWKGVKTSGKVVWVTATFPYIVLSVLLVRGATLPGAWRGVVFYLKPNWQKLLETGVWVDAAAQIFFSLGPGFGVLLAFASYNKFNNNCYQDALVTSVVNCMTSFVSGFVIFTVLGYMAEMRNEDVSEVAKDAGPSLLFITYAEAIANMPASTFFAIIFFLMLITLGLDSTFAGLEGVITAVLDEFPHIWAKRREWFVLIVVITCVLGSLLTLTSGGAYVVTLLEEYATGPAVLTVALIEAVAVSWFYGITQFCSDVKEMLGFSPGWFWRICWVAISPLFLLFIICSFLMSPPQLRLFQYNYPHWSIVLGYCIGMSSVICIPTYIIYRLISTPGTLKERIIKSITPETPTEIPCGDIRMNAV
Put plainly: Serotonin (5-HT) reuptake inhibition, rat cortical synaptosomes. Format: biochemical. The following applies: rat cortical synaptosome preparation. How it is done:
as §1

In test [8] the target is T5, human-homomeric 5-HT3A receptors (Homo sapiens, UniProt P46098).
T5 sequence (P46098 24-478): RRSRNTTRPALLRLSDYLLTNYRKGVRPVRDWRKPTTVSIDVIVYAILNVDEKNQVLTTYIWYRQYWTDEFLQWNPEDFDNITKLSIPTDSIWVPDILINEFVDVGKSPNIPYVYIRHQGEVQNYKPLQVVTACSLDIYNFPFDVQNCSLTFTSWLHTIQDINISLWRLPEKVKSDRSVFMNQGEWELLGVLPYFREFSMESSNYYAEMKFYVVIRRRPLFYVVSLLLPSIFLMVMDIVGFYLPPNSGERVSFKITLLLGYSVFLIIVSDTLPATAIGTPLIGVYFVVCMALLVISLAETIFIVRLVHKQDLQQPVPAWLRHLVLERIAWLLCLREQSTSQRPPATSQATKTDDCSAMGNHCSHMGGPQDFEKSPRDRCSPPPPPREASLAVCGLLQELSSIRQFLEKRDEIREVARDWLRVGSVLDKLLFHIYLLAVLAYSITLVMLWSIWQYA
Put plainly: Electrophysiology in oocytes expressing human-homomeric 5-HT3A receptors. Format: cell-based. As for the experimental part: The experiments were carried out as follows. […] Oocytes avoid of the follicle layer were selected and incubated for 24 hours in Modified Barth's Saline buffer [88 mM NaCl, 1 mM KCl, 15 mM HEPES, 2.4 mM NaHCO3, 0.41 mM CaCl2, 0.82 mM MgSO4, 0.3 mM Ca(NO3)2] supplemented with 2 mM sodium pyruvate, 0.1 U/l penicillin and 0.1 μg/l streptomycin. Stage […] oocytes were identified and injected with 12-48 nl of nuclease free water containing 14-50 pg of cRNA coding for human 5-HT3A receptors receptors and incubated at 18° C. until they were used for electrophysiological recordings (1-7 days after injection). […] Cells were impaled with agar plugged 0.5-1 MΩ electrodes containing 3 M KCl and voltage clamped at −90 mV by a GeneClamp 500B amplifier. The oocytes were continuously perfused with Ringer buffer and the drugs were applied in the perfusate.

Test [9] concerns the target T1, 5-HT2A receptors. Put plainly: Binding to human 5-HT2A receptors expressed in mammalian cells. Set-up: expressed in transfected cells; host or cells: CHO cells. The conditions noted are these: mammalian cells expressing human 5-HT2A receptors.
Test [10] deals with extracellular levels of acetylcholine in the prefrontal cortex and ventral hippocampus. Put plainly: Microdialysis, extracellular acetylcholine levels in freely-moving rats. It is filed as in vivo, rat. The conditions noted are these: FIGS. 1a and 1b. How it is done: Male Sprague-Dawley rats, initially weighing 275-300 g, were used. The animals were housed under a 12-hr light/dark cycle under controlled conditions for regular in-door temperature (21±2° C.) and humidity (55±5%) with food and tap water available ad libitum.
Rats were anaesthetised with hypnorm/dormicum (2 ml/kg) and intracerebral guide cannulas (CMA/12) were stereotaxically implanted into the hippocampus, aiming to position the dialysis probe tip in the ventral hippocampus (co-ordinates: 5.6 mm posterior to bregma, lateral—5.0 mm, 7.0 mm ventral to dura or in the frontal cortex (co-ordinates: 3.2 mm anterior to bregma; lateral, 0.8 mm; 4.0 mm ventral to dura). Anchor screws and acrylic cement were used for fixation of the guide cannulas. The body temperature of the animals was monitored by rectal probe and maintained at 37° C. The rats were allowed to recover from surgery for 2 days, housed singly in cages. […]
Concentration of acetylcholine (ACh) in the dialysates was analysed by means of HPLC with electrochemical detection using a mobile phase consisting of 100 mM disodium hydrogenphosphate, 2.0 mM octane sulfonic acid, 0.5 mM tetramethylammonium chloride and 0.005% MB (ESA), pH 8.0. […] The latter was detected electrochemical by using a platinum electrode (Analytical cell: ESA, model 5040). […]

T1 sequence (P28223 whole entry): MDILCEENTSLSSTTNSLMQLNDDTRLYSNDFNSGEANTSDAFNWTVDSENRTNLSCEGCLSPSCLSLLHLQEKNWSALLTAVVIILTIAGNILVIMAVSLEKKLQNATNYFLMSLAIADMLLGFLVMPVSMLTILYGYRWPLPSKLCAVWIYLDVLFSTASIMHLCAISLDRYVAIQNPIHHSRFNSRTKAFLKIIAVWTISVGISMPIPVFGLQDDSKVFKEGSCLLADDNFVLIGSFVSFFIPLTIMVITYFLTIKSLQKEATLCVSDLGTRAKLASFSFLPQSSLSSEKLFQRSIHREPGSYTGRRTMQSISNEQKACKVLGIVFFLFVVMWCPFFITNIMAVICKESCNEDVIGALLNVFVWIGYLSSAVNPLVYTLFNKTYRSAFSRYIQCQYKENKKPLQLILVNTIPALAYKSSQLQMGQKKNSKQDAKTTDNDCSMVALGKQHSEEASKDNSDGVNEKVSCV

Regarding `Cc1ccc(Sc2ccccc2C2CCNCC2)cc1` [compound I, 4-[2-(4-methylphenylsulfanyl)phenyl]piperidine], the Kb in test [1] (Kb, antagonism of 5-HT evoked release of Ca2+ from intracellular stores, functional assay) is 67 nM; in [1] (schild analysis, read-out: Kb, schild analysis (competitive antagonism)), 100 nM; in [8] (0.1 nM-100 nM, read-out: Kb, antagonism in low concentrations), around 2 nM. Besides, the “time spent licking the injured paw, 0-5 minutes” value in test [2] (1.0 mg/kg, first phase) was 37 s; in test [2] (10 mg/kg, first phase), 37 s. In [2] (1.0 mg/kg, second phase), the “time spent licking the injured paw, 20-30 minutes” value is 43 s. Also, the “effect in the first phase (direct chemical irritation and nociception)” value in test [2] (first phase, in words) was “little effect”. In test [2] (second phase, in words), the “time spent licking paws in the second phase” value was “clear and dose dependent decrease”. For the same molecule, the IC50 was 23 nM in test [3]; 8 nM in [7]; around 10 nM in test [8] (read-out: IC50, antagonism in low concentrations). Besides, the results for the “enhancement of DA levels above baseline levels” value in test [4] (8.9 mg/kg s.c.) and in test [4] (18 mg/kg s.c.) were “approximately 100%” and around 150%, respectively. Besides, the inhibitory constant (Ki) is 54 nM in [5], 34 nM in [6] and below 100 nM in [9]. Moreover, in test [8] (100-100000 nM, read-out: EC50, agonistic properties in higher concentrations), the EC50 is around 2600 nM. For the same molecule, the “maximal current, % of the maximal current elicited by 5-HT itself” value in test [8] (agonism at higher concentrations (100-100000 nM)) was 70-80%. Further, the “extra-cellular acetylcholine levels in the brain” value in [10] is on record as “dose dependent increase”.
